Holding throughout (type): cell-based
In experiment [1] the test system is A-549 (Human lung adenocarcinoma cells). In words: MTT inhibition of tumor cell growth, A-549. To be noted: Homo sapiens, A549, 48 h, Table 1, 7-hydroxy derivatives of S-3. As to the method: (§1) 1. Inoculating cells: the culture medium DMEM or RMPI1640 containing 10% fetal bovine serum was used to prepare a single cell suspension, and the cell suspension was inoculated to a 96-well plate at 5000-10000 cells per well (100 μl for each well); Adherent cells were inoculated and cultured for 12 h in advance. HL-60 (human promyelocytic leukemia cells), SMMC-7721 (human hepatoma cells), A-549 (Human lung adenocarcinoma cells), MCF-7 (human breast cancer cells), SW-480 (human colon cancer cells) were purchased from the Cell Bank of the Chinese Academy of Sciences, Shanghai.
(§2) 2. The solution of the compound to be tested (40 μM for primary screening; 5 concentrations were set for gradient re-screening for the compounds which achieve about 50% inhibition of tumor cell growth at 40 μM) was added, the final volume of each well was 200 μl, and triplicate wells were set for each test.
(§3) 3. Coloration: After culturing at 37° C. for 48 h, MTT solution (20 μl) was added to each well. After incubation for another 4 h, the culture was stopped. The supernatant in each well was pipetted and discarded, and 200 μl SDS solution (10%) was added to each well. Incubation was performed overnight (at 37° C.), to completely dissolve the crystal.
(§4) 4. Colorimetric assay: ELISA Reader (Bio-Rad 680) was used to obtain the light absorption for each well at a wavelength of 595 nm, the results were recorded. A cell growth curve was plotted with the concentration as abscissa and the cell survival percentage as ordinate. The two-point method (Reed and Muench method) was used to calculate the IC50 of the compound.

Experiment [2] relates to SMMC-7721 (human hepatoma cells). The experiment is described as follows: MTT inhibition of tumor cell growth, SMMC-7721. To be noted: Homo sapiens, SMMC-7721, 48 h, Table 1, 7-hydroxy derivatives of S-3. As to the method:
as §1, §2, §3, §4

Experiment [3] has as its system HL-60 (human promyelocytic leukemia cells). In words: MTT inhibition of tumor cell growth, HL-60. Conditions: Homo sapiens, HL-60, 48 h, Table 1, 7-hydroxy derivatives of S-3. How it is done:
as §1, §2, §3, §4

Experiment [4] relates to Wnt signaling pathway (Top-Flash reporter gene). The experiment is described as follows: Top-Flash Wnt reporter gene assay in HEK293T cells with Wnt3a conditioned medium. To be noted: Homo sapiens, HEK-293T, 6 h, 6 h. As to the method: HEK293T cells were cultured in DMEM containing 10% fetal bovine serum (Invitrogen) at 37° C., 5% CO2. The cells were passaged every other day. The density was retained at 70˜80% during passage. L cell line (CRL-2647, purchased from the gene bank of ATCC, the US) and the control cell line (CRL-2648, purchased from ATCC, US), which stably secreted mouse Wnt3a protein, were cultured in DMEM containing 50 ug/ml G418 and 10% fetal bovine serum, at 37° C., 5% CO2. When the cells grew to a density of about 70%, the medium was replaced with DMEM containing 10% fetal bovine serum. After continuous culture for 4 days, the culture was collected and centrifuged, and the supernatant was kept so that the Wnt conditioned medium was obtained. After titration assay, the conditioned medium was quick-frozen in liquid nitrogen, and placed at −80° C. for long-term storage, so that the titer was kept unchanged.
The cells were seeded to a 48-well plate at a density of […] cells per well, and transfected 20 h later. The reagents for plasmid transfection were calculated based on the amount in each well of the 48-well plate as following: the total amount of plasmid was 125 ng/well; the plasmid was first added to a serum-free medium (25 μL/well) and mixed well; PLUS reagent (Invitrogen) was then added in an amount of 0.5 μL/well and mixed well, then stood for 15 min; Lipofectamine (Invitrogen) liposome was added in an amount of 0.5 μL/well to serum-free DMEM medium (25 μL/well), and then mixed with the solution containing the plasmid and the PLUS, and stood for 15 min. The cells were cultured in serum-free DMEM medium (100 μL/well), and the final mixture of plasmid, PLUS and Lipofectamine were added to the cells. After incubation for 3 h, the transfection was stopped by the medium containing 10% fetal bovine serum (200 μL/well).
The HEK293T cells used for activity assay of the report gene were transfected by the method as shown in 2). Activity assay of Wnt reporter gene: the amount of plasmid for transfection was 5 ng/well for TOP-flash and 5 ng/well for GFP plasmid as internal standard, with lacZ added to reach a total amount of 125 ng/well. […] After treating for 6 h, Boehringer Mannheim Luci-ferase Assay Kit was used to lyse cells (200 μL/well). 50 μL from each well was pipetted into a 96-well plate. The indensity of GFP protein in the cell lysate was measured by fluorimeter FL600 (BIO-TEK Inc. Winooski, Vt.), and taken as internal standard for cell transfection efficiency. 10 μL substrate of luciferase was then added to each well, and the activity of luciferase was measured by Micro Lumate Plus (Perkin Elmer Inc. Wellesley, Mass.) luminometer. Finally, GFP indensity was used as internal standard to calibrate the activity of luciferase, i.e. the activity of Wnt reporter gene.
Calculation of IC50 (taking the calculation of IC50 of the Wnt signaling pathway for example): background (the activity as measured in the groups treated with a conditioned medium containing DMSO only) was subtracted from the reporter gene activity as measured in the groups treated by Wnt3a conditioned medium with or without the compound to be tested at different concentrations; and the obtained value was defined as the activity of the reporter gene induced by Wnt or the residual activity of the reporter gene after adding the compound to be tested. The residual activity was normalized by the activity induced by Wnt to get the relative residual activity. Then combine with the concentrations of the compound to be tested to plot a linear graph, and a dose-effect curve was fitted based on 4-parameter logistic fit. IC50 of the Wnt signaling pathway is determined as the concentration at which the relative residual activity is 0.5.

Experiment [5] deals with MCF-7 (human breast cancer cells). The experiment is described as follows: MTT inhibition of tumor cell growth, MCF-7. To be noted: Homo sapiens, MCF7, 48 h, Table 1, 7-hydroxy derivatives of S-3. As to the method: as §1, §2, §3, §4
Experiment [6] has as its system SW-480 (human colon cancer cells). The experiment is described as follows: MTT inhibition of tumor cell growth, SW-480. To be noted: Homo sapiens, SW480, 48 h, Table 1, 7-hydroxy derivatives of S-3, read-out: IC50 SW-480. As to the method:
as §1, §2, §3, §4

[7] abbreviates: Table 7 (second), derivatives modified on 7-hydroxyl of S-3, HEK293T, Wnt3a conditioned medium, read-out: IC50 (μM), inhibitory activity on the Wnt signaling pathway.

As a reminder, the IC50 is the midpoint of a concentration-inhibition curve.

Structures are written as SMILES. Read-outs that look alike come from different tables or passages of the source.

On to `C=C1C(=O)[C@]23CC[C@H]1CC2[C@@]12CCC[C@@](C)(COC1=O)C2C[C@H]3OC=O` (some centres unmarked) [Compound 1a], for which the half-maximal inhibitory concentration (IC50) in experiment [1] is 2.18 µM; in experiment [2], 1.67 µM; in experiment [3], 2.39 µM; in experiment [4] (setting [7]) it was 18.3 ± 0.66 µM; in experiment [5], 2.74 µM; in experiment [6], 1.96 µM.
For the molecule `C=C1C(=O)[C@]23CC[C@H]1CC2[C@@]12CCC[C@@](C)(COC1=O)C2C[C@H]3OC(C)=O` (some centres unmarked) [Compound 1b], the concentration for half-maximal inhibition (IC50) is 2.83 µM in experiment [1]; 3.6 µM in experiment [2]; 1.46 µM in experiment [3]; 14.2 ± 0.67 µM in experiment [4] (setting [7]); 3.48 µM in experiment [5]; 3.44 µM in experiment [6].
On to `C=C1C(=O)[C@]23CC[C@H]1CC2[C@@]12CCC[C@@](C)(COC1=O)C2C[C@H]3OC(=O)CCl` (some centres unmarked) [Compound 1c], for which the half-inhibitory concentration (IC50) in experiment [1] turned out to be 0.64 µM; in experiment [2] it was 0.78 µM; in experiment [3], 1.13 µM; in experiment [4] (setting [7]) it was 17.9 ± 0.98 µM; in experiment [5], 3.67 µM; in experiment [6], 2.86 µM.
Turning to `C=C1C(=O)[C@]23CC[C@H]1CC2[C@@]12CCC[C@@](C)(COC1=O)C2C[C@H]3OC(=O)CBr` (some centres unmarked) [Compound 1d], the IC50 is 0.5 µM in experiment [1]; 1.23 µM in experiment [2]; 1.05 µM in experiment [3]; 28.8 ± 0.56 µM in experiment [4] (setting [7]); 3.47 µM in experiment [5]; 3 µM in experiment [6].
`C=C1C(=O)C23CC[C@H]1CC2[C@@]12CCC[C@@](C)(COC1=O)C2C[C@H]3OC(=O)CN=[N+]=[N-]` (some centres unmarked) [Compound 1e]: the half-inhibitory concentration (IC50) was found to be 2.96 µM in experiment [1]; 4.1 µM in experiment [2]; 4.44 µM in experiment [3]; 22.14 ± 0.1 µM in experiment [4] (setting [7]); 2.74 µM in experiment [5]; 2.37 µM in experiment [6].
As for `C=C1C(=O)C23CC[C@H]1CC2[C@@]12CCC[C@@](C)(COC1=O)C2C[C@H]3OC(=O)C(F)(F)F` (some centres unmarked) [Compound 1f], the IC50 in experiment [1] was determined as 6.08 µM; in experiment [2] it was 13 µM; in experiment [3] it was 5.72 µM; in experiment [4] (setting [7]), 20.2 ± 2.59 µM; in experiment [5] it was 2.74 µM; in experiment [6], 7.81 µM.
Take `C=CC(=O)O[C@@H]1CC2[C@@]3(C)CCC[C@@]2(C(=O)OC3)C2C[C@@H]3CCC21C(=O)C3=C` (some centres unmarked) [Compound 1g]: the IC50 in experiment [1] was determined as 5.97 µM; in experiment [2], 10.2 µM; in experiment [3] it was 6.86 µM; in experiment [4] (setting [7]), 30 ± 2.22 µM; in experiment [5], 5.85 µM; in experiment [6], 6.42 µM.
For `C=C1C(=O)C23CC[C@H]1CC2[C@@]12CCC[C@@](C)(COC1=O)C2C[C@H]3OC(=O)CCCl` (some centres unmarked) [Compound 1h], the 50% inhibitory concentration (IC50) in experiment [1] amounted to 2.61 µM; in experiment [2], 3.5 µM; in experiment [3], 4.59 µM; in experiment [4] (setting [7]) it was 20.2 ± 0.99 µM; in experiment [5], 2.7 µM; in experiment [6] it was 3.38 µM.
For the molecule `C=C1C(=O)C23CC[C@H]1CC2[C@@]12CCC[C@@](C)(COC1=O)C2C[C@H]3OC(=O)[C@@H](C)Cl` (some centres unmarked) [Compound 1i], the half-inhibitory concentration (IC50) in experiment [1] stood at 2.59 µM; in experiment [2], 3.35 µM; in experiment [3] it was 3.37 µM; in experiment [4] (setting [7]), 28.3 ± 2.76 µM; in experiment [5] it was 2.58 µM; in experiment [6], 2.5 µM.
Take `C=C1C(=O)C23CC[C@H]1CC2[C@@]12CCC[C@@](C)(COC1=O)C2C[C@H]3OC(=O)c1ccccc1` (some centres unmarked) [Compound 1j]: the IC50 is 2.97 µM in experiment [1]; 0.74 µM in experiment [2]; 2.99 µM in experiment [3]; 14.7 ± 0.18 µM in experiment [4] (setting [7]); 3.71 µM in experiment [5]; 3.95 µM in experiment [6].
Regarding `C=C1C(=O)C23CC[C@H]1CC2[C@@]12CCC[C@@](C)(COC1=O)C2C[C@H]3OC(=O)c1ccc([N+](=O)[O-])cc1` (some centres unmarked) [Compound 1k], the IC50 in experiment [1] turned out to be 1.05 µM; in experiment [2] it was 2.89 µM; in experiment [3], 0.86 µM; in experiment [4] (setting [7]), 10.7 ± 0.39 µM; in experiment [5], 0.8 µM; in experiment [6], 0.69 µM.
Consider `C=C1C(=O)C23CC[C@H]1CC2[C@@]12CCC[C@@](C)(COC1=O)C2C[C@H]3OC(=O)c1ccc(OC)cc1` (some centres unmarked) [Compound 1l], for which the IC50 in experiment [1] was found to be 2.46 µM; in experiment [2], 3.6 µM; in experiment [3] it was 4.2 µM; in experiment [4] (setting [7]) it was 18.6 ± 1.48 µM; in experiment [5], 3.07 µM; in experiment [6] it was 2.43 µM.
For the molecule `C=C1C(=O)C23CC[C@H]1CC2[C@@]12CCC[C@@](C)(COC1=O)C2C[C@H]3OC(=O)c1ccc(C(F)(F)F)cc1` (some centres unmarked) [Compound 1m], the half-maximal inhibitory concentration (IC50) in experiment [1] was 1.73 µM; in experiment [2] it was 2.65 µM; in experiment [3] it was 0.89 µM; in experiment [4] (setting [7]), 19 ± 1.61 µM; in experiment [5] it was 1.97 µM; in experiment [6], 2.19 µM.
With `C=C1C(=O)C23CC[C@H]1CC2[C@@]12CCC[C@@](C)(COC1=O)C2C[C@H]3OC(=O)c1ccco1` (some centres unmarked) [Compound 1n], the IC50 was determined as 2.14 µM in experiment [1]; 3.05 µM in experiment [2]; 4.01 µM in experiment [3]; 18.9 ± 2.48 µM in experiment [4] (setting [7]); 3.11 µM in experiment [5]; 2.22 µM in experiment [6].
For `C=C1C(=O)[C@@]23CC[C@@H](CC2[C@@]24CCC[C@@](C)(COC2)C14)C1(CO1)C3=O` (some centres unmarked) [Compound 29], the half-inhibitory concentration (IC50) in experiment [4] (Table 9, HEK293T, Wnt3a conditioned medium, read-out: IC50(μM), inhibitory activity on the Wnt signaling pathway) is above 60 µM.
Turning to `C=C1C(=O)C23CC[C@@H](CC2[C@@]24CCC[C@@](C)(COC2)C14)C(=C)[C@@H]3O` (some centres unmarked) [Compound 33], in experiment [4] (read-out: IC50 (μM), inhibitory activity on the Wnt signaling pathway), the IC50 is 12.1 ± 1.25 µM.

Values taken from patent publication US10112918B2, “15-oxospiramilactone derivatives, preparation method and uses thereof” (Kunming Institute of Botany, The Chinese Academy of Sciences, priority 2013, dated 2018).
